Experimental data reported in US6447801B1, “Anti-parasitic action of N,N-diethyl-m-toluamide (deet) and formulations that prolong its activity in the skin” (priority 1997, dated 2002).

Key:
[1] = test system: Amblyoma americanum; experiment: Tick attachment to rabbit ear, Amblyoma americanum; format: in vivo
Procedure: To determine the effect of DEET on tick attachment and feeding we used two species of ticks Amblyoma americanum and Dermacetor variabilis purchased from University of Oklahoma. Ticks were allowed to feed on the ears of male New Zealand white rabbits purchased from Charles River. For feeding, five ticks were introduced into a 60 μm sieve cell well (Fisher Scientific) which was attached to the ear of the rabbit with nail glue. Ticks were observed every 30 minutes for the first eight hours to assess skin attachment and feeding behavior. Tick attachment was defined as the minimum time required for 3 of the 5 ticks to attach to the ear. […] The observation was continued for 72 hours for both species of ticks. Separate rabbits were used for each species and for each treatment. […] All the ticks in this study were active until attachment.
In this series of experiments, the protective effect(s) of different concentrations of DEET and Lipodeet on the attachment of nymphs and adults of two species of ticks, A. americanum and D. variabilis, to the rabbit ear was evaluated. Experiments were set up wherein different concentrations (20% or 40% of DEET or Lipodeet were applied (0.2 ml of the samples to 10 cm^2 surface area), onto the dorsal side of the ear lobes of a rabbit. After allowing the preparation to dry for 30 min., sieve cups (Fisher Scientific, 1″ inner diameter) were then attached to the ear lobes using nail glue. Ten nymphs or five adult ticks were then introduced into the sieve cups every 24 hrs through a small slit made on the sieve membrane. Attachment of ticks to the skin was monitored every 24 hrs. for up to 72 hrs. after introduction of the ticks.
More than 60% of ticks used in our experiments were dead after contact with Lipodeet. Although a well-aerated sieve cup was used (1″ inner diameter), we initially thought that the tick mortality may be due to possible DEET vapor trapped within the sieve cup. Therefore, we designed experiments where one half of the surface area of skin within the sieve cup was treated with 40% Lipodeet and the other half was left untreated. Five adults ticks of A. americanum were then introduced into the sieve cups every 24 hrs. After 72 hrs., the sieve cups were removed.

[2] = test system: cercariae of Schistosoma mansoni; experiment: In vitro effects of DEET on S. mansoni cercariae (viability by neutral red); format: cell-based
Procedure: FIG. 1 illustrates the in vitro effects of DEET on S. mansoni cercariae. In vitro effects of DEET on cercariae of Schistosoma mansoni. Cercariae were placed in 96 well titre plates coated previously with a serial doubling dilutions of DEET ranging from 30% to 0.24%. At different time periods after exposure to DEET, the percent viability of cercariae was evaluated by neutral red exclusion method. The experiment was repeated 17 times with an “n” of 189 to 440 cercariae for each treatment.
Based on the foregoing observations, DEET was tested for its effects on S. mansoni cercariae. DEET is commercially available and was purchased from Fluka Chemicals Corp. (Ronkonkoma, N.Y.). For in vitro studies, serial doubling dilutions of DEET ranging from 30% to 0.24% were prepared in isopropanol(Sigma, St. Louis, Mo.) and 50 μl of each dilution was transferred to individual wells of a 96 well flat bottom micro titre plate (Costar, Cambridge, Mass.). Control wells received 50 μl of isopropanol each. The plates were then kept covered in a fume hood and the fluid was allowed to evaporate overnight. The following day approximately 50 cercariae of S. mansoni suspended in 50 μl of RPMI-1640 media (pH 7.4; Gibco BRL) or phosphate buffered saline (PBS, pH 7.0) was placed in each well and the viability of the cercariae were monitored at 30 min, 60 min, and 4 hrs. A total of 17 replicas were performed for each dilution and for each time point in any one given experiment. To determine the viability of cercariae, 10 μl of a 0.05% Neutral Red (Sigma Chemical Co.) was added to each well at the end of the experiment and the percentage of live and dead cercariae was determined as described in He et al., Acta Zoologica Sinica, 31:240-245 (1985).

[3] = test system: cercariae of S. mansoni; experiment: Effect of DEET applied to the skin after exposure to S. mansoni infection in mice; format: in vivo, Schistosoma mansoni
Source text: For in vivo animal experiments, male mice of the CD1 strain, weighing approximately 18-20 grams, purchased from Charles River Laboratories (Wilmington, Mass.) were used. The use of animals in these experiments were in compliance with the Animal Welfare Act and other Federal statues and regulations relating to animals as stated in the National Institute of Health publication: Guide for the Care and Use of Laboratory Animals. Mice were infected individually with schistosome cercariae via either tail skin or via shaved abdominal skin. For infection via tail skin, the mouse was restrained in a cage and the tail was dipped for 60 minutes in a tube containing 250-300 ^35S-labeled cercariae suspended in 10 ml of distilled water at room temperature. […]
To determine skin penetration and worm establishment, whole tail skin or the area of abdominal skin that was exposed to the cercariae as described above and the lungs were removed from each mouse on day seven after infection and processed for compressed organ autoradiography techniques as described previously (Li J W et al., Parasitology International 46: 55-65 (1997)). […] Following autoradiographic development, the dark spots (which represent reduced silver foci on film) were counted and percent worm establishment was calculated (number of spots/total number of cercariae used for infection X 100). […]

Q: With `CCN(CC)C(=O)c1cccc(C)c1` [DEET, N,N-diethyl-m-toluamide] as the compound, how does the “initial time with no tick attachment” value ([1]; 10% DEET on rabbit ear, normal rabbits 20 hours) read?
A: 22.0 h

Q: What about the adult ticks attached ([1]; 20%, adults, by 48 hrs (2/10)) of the same compound?
A: 20%

Q: And the adult ticks attached ([1]; 20%, adults, by 72 hrs (6/15))?
A: 40%

Q: What about the “prevention of adult tick attachment” value ([1]; 20%, adults, up to 24 hrs) of the same compound?
A: prevented tick attachment

Q: What about the “reduction of attachment of A. americanum nymphs to rabbit ear” value ([1]; 20%, from 24 to 72 hrs, untreated 40% attached) of the same compound?
A: 50%

Q: And the “site of tick attachment, half of the skin in the sieve cup treated” value ([1]; 40%, adult A. americanum, after 72 hrs)?
A: ticks were seen attached to both treated and untreated surfaces

Q: What about the adult ticks attached ([1]; 40%, adults, at 48 hrs (1/10)) of the same compound?
A: 10%

Q: And the adult ticks attached ([1]; 40%, adults, by 72 hrs (3/15))?
A: 20%

Q: What about the “ticks attached to the skin” value ([1]; 40%, nymphs, by 48 hrs) of the same compound?
A: 20%

Q: And the “prevention of tick attachment” value ([1]; 40%, nymphs, up to 24 hrs)?
A: completely prevented tick attachment to the skin

Q: What about the “time to immobilize all the cercariae” value ([2]; DEET 7.5%) of the same compound?
A: ≤ 5 min

Q: And the cercariae dead ([2]; DEET 7.5%, by 4 hours)?
A: 100%

Q: What about the immobilization of cercariae ([2]; DEET at concentrations of 15% and above) of the same compound?
A: immediately immobilized

Q: What about the “cercariae dead (neutral red staining)” value ([2]; DEET at concentrations of 15% and above, 30 minutes) of the same compound?
A: 100%

Q: What about the “immobilizing or killing of cercariae” value ([2]; concentrations below 7.5% of DEET) of the same compound?
A: less effective in immobilizing or killing cercariae

Q: And the protection ([3]; 40% DEET applied 4 hrs or more after infection)?
A: no protection

Q: What about the “effectiveness in preventing the infection” value ([3]; 40% DEET applied within 30 min after exposure to cercariae) of the same compound?
A: 100%
